For three molecules, IC50 and Ki results are on record in patent publication US20100184094A1, “USE OF MDCK CELLS IN THE EVALUATION OF CHOLESTEROL MODULATORS” (priority 2007, published 2010).

In the test the target is dog NPC1L1 (Canis lupus familiaris, UniProt A0A8I3RZG1). As to the kind of experiment: [3H]AS binding to dog NPC1L1 transiently expressed in TsA201 cells. Conditions: for IC50: 4.65 nM [3H]AS, 4 h, 37° C., read-out: IC50 inhibition of [3H]AS binding; for Ki: dog NPC1L1/TsA201 cells, read-out: Ki (competition with [3H]AS). The method, then:
rNPC1L1/HEK293 and TsA201 cells were seeded at a density of 10,000 cells per well in 96-well poly-D-lysine coated plates and cells were allowed to attach for approximately 18 h at 37° C. TsA201 cells were subsequently transfected with dog NPC1L1/pcDNA5/FRT according to the manufacturer's instructions (Roche) and incubated for 3 days at 37° C. MDCKII-derived, LLC-PKI, HepG2, or CaCo-2 cells were seeded at a density of 25,000 cells per well in 96-well tissue culture treated plates, and cells were allowed to attach and differentiate for approximately 72 h at 37° C., except for CaCo-2 cells where differentiation took approximately 14 days at 37° C. […] Duplicate samples were averaged for each experimental point. […] Dissociation kinetics were determined by addition of 100 μM EZE-gluc, and incubating for different periods of time. Nonspecific binding was defined in the presence of 100 μM EZE-gluc. At the end of the incubation period, cells were washed twice with 200 μl of pre-warmed DMEM to separate bound from free ligand, 1% SDS was added to the wells followed by 5 ml of Scintillant, and radioactivity associated with cells was determined using a β-counter. […] Thereafter, plates were placed on ice and cells were washed twice with ice-cold PBS, followed by ice-cold acid wash with DMEM, pH 3.5, for 1, 5 or 15 minutes. […] For Transwell experiments, MDCKII cells were seeded at 200,000 cells/well in a 24-well plate and incubated for 3 days at 37° C. […] Thereafter, both apical and basolateral compartments were washed three times with PBS, and the Transwell filter was cut out and its associated radioactivity determined using afi-counter. Data from saturation, competition and ligand dissociation experiments were analyzed as described in the literature; see, Priest, et al., 2004 Biochemistry 43:9866-9876; Knaus et al., 1995 Biochemistry 34:13627-13634. The association rate, k1, was determined by employing the pseudo-first-order rate equation k1=kobs([LR]e/[L][LR]max)) where [LR]max is the concentration of the complex at equilibrium, [L] is the concentration of ligand, [LR]max is the total receptor concentration, kobs is the slope of the pseudo-first order plot, ln([LR]e/([LR]e−[LR]t)) versus time, and [LR]t is the receptor-ligand complex at one given time point t.
To further validate this statement, cloned dog NPC1L1 was transiently expressed in TsA201 cells and binding of [^3]AS to these cells was then characterized (FIG. 5 and Table 1).

As a reminder, the IC50 is the concentration that gives 50% inhibition. What is called Ki is a measure of affinity in units of concentration, obtained from inhibition or displacement.

Sequence of dog NPC1L1 (A0A8I3RZG1 entry or part of it): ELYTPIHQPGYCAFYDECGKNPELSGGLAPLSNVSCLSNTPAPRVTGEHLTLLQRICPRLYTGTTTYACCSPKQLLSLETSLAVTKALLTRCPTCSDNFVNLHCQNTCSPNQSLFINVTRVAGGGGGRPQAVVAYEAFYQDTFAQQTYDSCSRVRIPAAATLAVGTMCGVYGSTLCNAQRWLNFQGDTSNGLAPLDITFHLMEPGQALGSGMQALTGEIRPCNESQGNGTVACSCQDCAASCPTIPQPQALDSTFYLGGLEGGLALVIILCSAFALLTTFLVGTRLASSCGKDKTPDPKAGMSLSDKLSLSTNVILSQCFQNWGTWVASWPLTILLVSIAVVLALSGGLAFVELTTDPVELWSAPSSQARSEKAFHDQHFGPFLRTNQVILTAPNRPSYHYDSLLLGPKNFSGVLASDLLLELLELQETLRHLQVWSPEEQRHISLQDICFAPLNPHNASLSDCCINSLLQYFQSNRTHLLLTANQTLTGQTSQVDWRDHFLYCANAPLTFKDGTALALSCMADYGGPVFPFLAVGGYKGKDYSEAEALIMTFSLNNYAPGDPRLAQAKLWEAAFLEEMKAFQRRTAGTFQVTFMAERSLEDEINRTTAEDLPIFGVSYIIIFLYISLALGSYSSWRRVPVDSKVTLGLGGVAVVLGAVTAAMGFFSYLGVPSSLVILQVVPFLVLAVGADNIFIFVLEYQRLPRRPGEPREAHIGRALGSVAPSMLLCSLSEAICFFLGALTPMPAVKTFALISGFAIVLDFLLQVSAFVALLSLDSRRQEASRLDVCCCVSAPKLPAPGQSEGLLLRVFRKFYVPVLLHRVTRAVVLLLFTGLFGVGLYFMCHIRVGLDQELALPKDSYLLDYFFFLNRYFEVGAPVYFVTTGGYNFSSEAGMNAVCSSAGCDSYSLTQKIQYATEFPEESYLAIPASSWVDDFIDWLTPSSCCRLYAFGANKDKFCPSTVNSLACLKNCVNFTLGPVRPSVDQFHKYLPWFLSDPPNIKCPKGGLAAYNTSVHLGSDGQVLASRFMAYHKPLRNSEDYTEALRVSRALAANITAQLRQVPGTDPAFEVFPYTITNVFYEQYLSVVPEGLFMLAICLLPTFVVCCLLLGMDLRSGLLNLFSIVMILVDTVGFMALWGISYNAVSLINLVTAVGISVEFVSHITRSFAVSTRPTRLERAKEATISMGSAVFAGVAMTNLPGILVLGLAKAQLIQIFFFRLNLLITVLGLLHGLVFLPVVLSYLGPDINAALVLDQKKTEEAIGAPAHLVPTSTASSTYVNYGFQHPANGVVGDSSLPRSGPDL

Take `COC(=O)[C@H]1O[C@@H](Oc2ccc([C@@H]3[C@@H](CC[C@H](O)c4ccc(F)cc4)C(=O)N3c3ccc(C#CCNS(C)(=O)=O)cc3)cc2)[C@H](O)[C@@H](O)[C@@H]1O` [PS, 4-[(2S,3R)-3-[(3S)-3-(4-fluorophenyl)-3-hydroxypropyl]-1-(4-{3-[(methylsulfonyl)amino]prop-1-yn-1-yl}phenyl)-4-oxoazetidin-2-yl]phenyl methyl-β-D-glucopyranosiduronate]: the IC50 came to 3.73 nM and the Ki is 0.97 ± 0.08 nM.
For `O=C1[C@H](CC[C@H](O)c2ccc(F)cc2)[C@@H](c2ccc(O)cc2)N1c1ccc(F)cc1` [EZE, Ezetimibe], the IC50 came out at 111 nM and the Ki was found to be 21.5 ± 7.56 nM.
For `O=C(O)[C@H]1O[C@@H](Oc2ccc([C@@H]3[C@@H](CC[C@H](O)c4ccc(F)cc4)C(=O)N3c3ccc(F)cc3)cc2)[C@H](O)[C@@H](O)[C@@H]1O` [EZE-gluc, ezetimibe glucuronide] the same measures were 27 nM and 5.51 ± 1.52 nM.
